Consider one compound from US20080051388A1, “Novel Compounds That Inhibit Factor Xa Activity” (Morphochem Aktiengesellschaft Fur Kombinatorische Chemie, priority 2004, published 2008).

This assay concerns the target factor Xa (Homo sapiens, UniProt P00742). Description: Inhibitory action towards factor Xa activity (methods of WO0216312). The format is biochemical. The following applies: read-out: IC50 value (factor Xa inhibition). The protocol:
Determinations of the inhibitory action towards factor Xa activity were carried out in accordance with the methods described in WO0216312.

One may read the IC50 as the concentration at which inhibition is half-maximal.

Sequence of factor Xa (P00742 235-488 limits assumed): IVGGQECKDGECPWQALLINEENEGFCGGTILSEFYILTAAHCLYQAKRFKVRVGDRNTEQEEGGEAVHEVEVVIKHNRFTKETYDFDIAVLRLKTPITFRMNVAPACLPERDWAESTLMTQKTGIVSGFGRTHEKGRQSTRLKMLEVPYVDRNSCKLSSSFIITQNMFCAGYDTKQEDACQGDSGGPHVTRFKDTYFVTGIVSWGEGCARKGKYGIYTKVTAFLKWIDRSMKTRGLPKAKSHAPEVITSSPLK
Sequence of factor Xa (P00742 41-179 partner limits assumed): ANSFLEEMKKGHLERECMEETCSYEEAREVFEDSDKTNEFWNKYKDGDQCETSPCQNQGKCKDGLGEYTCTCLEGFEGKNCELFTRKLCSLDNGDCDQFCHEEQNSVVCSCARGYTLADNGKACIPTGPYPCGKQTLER

Take `CN1CCN(C(=O)CNC(=O)C(Nc2cccc(C(=N)N)c2)c2ccccc2O[C@@H]2O[C@H](CO)[C@@H](O)[C@H](O)[C@H]2O)CC1` (single isomer, unassigned) [Example 1, 2-(3-Carbamimidoyl-phenylamino)-N-[2-(4-methyl-piperazin-1-yl)-2-oxo-ethyl]-2-[2-(3,4,5-trihydroxy-6-hydroxymethyl-tetrahydro-pyran-2-yloxy)-phenyl]-acetamide]: the IC50 was 0.1 to 10 nM.
